Source: patent US20090099136A1 (PHARMASSET, INC., priority 2007, published 2009)
Values joined by “and” are separate entries in the source; they are usually repeats but may differ in a detail not shown here. Equal values may be shown once.

Key:
NL43 wild type virus = format: cell-based, HIV; conditions: read-out: EC50 (P4) (WT)

Row | SMILES | Toxicity (Luciferase, 6d) (P4 CCR5-luc cells) | EC50 (NL43 wild type virus)
1 | Cc1cn(C2COC(COP(=O)(NC(C)C(=O)OCc3ccc(F)cc3)Oc3ccccc3)O2)c(=O)[nH]c1=O (mixture of isomers) [Example 19] | >100 | 
2 | COC(=O)C(CC(C)C)NP(=O)(OCC1OCC(n2cc(C)c(=O)[nH]c2=O)O1)Oc1ccccc1 (mixture of isomers) [Example 52] | >100 | 960 nM
3 | Cc1cn(C2COC(COP(=O)(NC(C)C(=O)OCC3CC3)Oc3ccccc3)O2)c(=O)[nH]c1=O (mixture of isomers) [Example 96] | >100 | 330 nM
4 | CCCCCOC(=O)C(C)NP(=O)(OCC1OCC(n2cc(C)c(=O)[nH]c2=O)O1)Oc1ccccc1 (mixture of isomers) [Example 17] | >100 | 360 nM
5 | Cc1cn(C2COC(COP(=O)(NC(C)C(=O)OCc3ccccc3)Oc3ccccc3)O2)c(=O)[nH]c1=O (mixture of isomers) [Example 119] | >100 | 1700 nM
6 | Cc1cn(C2COC(COP(=O)(NC(C)C(=O)OC3CCC3)Oc3ccc(F)cc3)O2)c(=O)[nH]c1=O (mixture of isomers) [Example 86] | >100 | 500 nM
7 | Cc1cn(C2COC(COP(=O)(NC(CC(C)C)C(=O)OCC3CC3)Oc3ccccc3)O2)c(=O)[nH]c1=O (mixture of isomers) [Example 116] | >100 | 570 nM
8 | Cc1cn(C2COC(COP(=O)(NC(C)C(=O)OCc3ccccc3)Oc3ccccc3Cl)O2)c(=O)[nH]c1=O (mixture of isomers) [Example 25] | >100 | 260 nM
9 | CCOC(=O)C(C)NP(=O)(OCC1OCC(n2cc(C)c(=O)[nH]c2=O)O1)Oc1ccc(Cl)cc1 (mixture of isomers) [Example 20] | >100 | 270 nM
10 | Cc1cn(C2COC(COP(=O)(NC(C)C(=O)OC3CCCCC3)Oc3ccccc3)O2)c(=O)[nH]c1=O (mixture of isomers) [Example 72] | >100 | 2120 nM
11 | Cc1cn(C2COC(COP(=O)(NC(C)C(=O)OC3CCC3)Oc3ccccc3)O2)c(=O)[nH]c1=O (mixture of isomers) [Example 95] | >100 | 450 nM
12 | Cc1cn(C2COC(COP(=O)(NC(C)C(=O)OCc3ccccc3)Oc3ccc(F)cc3)O2)c(=O)[nH]c1=O (mixture of isomers) [Example 67] | >100 | 1110 nM
13 | Cc1cn(C2COC(COP(=O)(NC(C)C(=O)OC3CCCC3)Oc3ccccc3)O2)c(=O)[nH]c1=O (mixture of isomers) [Example 73] | >100 | 1030 nM
14 | CCCCOC(=O)C(C)NP(=O)(OCC1OCC(n2cc(C)c(=O)[nH]c2=O)O1)Oc1ccc(Br)cc1 (mixture of isomers) [Example 28] | >100 | 1340 nM
15 | Cc1cn(C2COC(COP(=O)(NC(C)C(=O)OCC3CCC3)Oc3ccccc3)O2)c(=O)[nH]c1=O (mixture of isomers) [Example 109] | >100 | 710 nM
16 | CCCCCCOC(=O)C(C)NP(=O)(OCC1OCC(n2cc(C)c(=O)[nH]c2=O)O1)Oc1ccccc1 (mixture of isomers) [Example 18] |  | 740 nM and 410 nM
